#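 1) Cells in 96-well plates. 2) Compound, 48 h, 5 concentrations. 3) Linear interpolation between surrounding doses. 4) Unreached endpoint = highest concentration. Abbreviation: GI50, concentration required for 50% inhibition of growth. TGI: concentration producing complete growth inhibition.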
# Tests used:
# Assay in all cases: inhibition of tumour cell growth, NCI panel, 48 h
# [1] = system: A498 renal
# [2] = system: CAKI-1 renal
# [3] = system: DU-145 prostate
# [4] = system: EKVX NSCLC
# [5] = system: HCT-15 colon
# [6] = system: HOP-92 NSCLC
# [7] = system: HS 578T breast
# [8] = system: MDA-MB-435
# [9] = system: NCI/ADR-RES ovarian
# [10] = system: PC-3 prostate
# [11] = system: RXF 393 renal
# [12] = system: SF-268 CNS
# [13] = system: SF-295 CNS
# [14] = system: SK-MEL-2 melanoma
# [15] = system: SK-MEL-28 melanoma
# [16] = system: UACC-257 melanoma
# [17] = system: UO-31 renal
# [18] = system: 786-0 renal
# [19] = system: A549 NSCLC
# [20] = system: ACHN renal
# [21] = system: CCRF-CEM leukemia
# [22] = system: COLO 205 colon
# [23] = system: HCC-2998 colon
# [24] = system: HCT-116 colon
# [25] = system: HOP-62 NSCLC
# [26] = system: HT29 colon
# [27] = system: IGROV1 ovarian
# [28] = system: K-562 leukemia
# [29] = system: KM12 colon
# [30] = system: LOX IMVI melanoma
# [31] = system: M14 melanoma
# [32] = system: MALME-3M melanoma
# [33] = system: MCF7 breast
# [34] = system: MDA-MB-231 breast
# [35] = system: MOLT-4 leukemia
# [36] = system: NCI-H226 lung
# [37] = system: NCI-H23 lung
# [38] = system: NCI-H460 lung
# [39] = system: NCI-H522 lung
# [40] = system: OVCAR-3 ovarian
# [41] = system: OVCAR-4 ovarian
# [42] = system: OVCAR-5 ovarian
# [43] = system: OVCAR-8 ovarian
# [44] = system: RPMI-8226 leukemia
# [45] = system: SK-MEL-5 melanoma
# [46] = system: SK-OV-3 ovarian
# [47] = system: SN12C renal
# [48] = system: SNB-19 CNS
# [49] = system: SR leukemia
# [50] = system: SW-620 colon
# [51] = system: T-47D breast
# [52] = system: TK-10 renal
# [53] = system: U251 CNS
# [54] = system: UACC-62 melanoma
# [55] = system: BT-549 breast
# [56] = system: HL-60(TB) leukemia
# [57] = system: SF-539 CNS
# [58] = system: SNB-75 CNS
compound,measurement,setting,value
O=C(C[n+]1ccn(CC(OCc2ccc(Cl)cc2Cl)c2ccc(Cl)cc2Cl)c1)c1ccc(F)cc1 (stereo unspecified),GI50,[1],1.42 µM
same,TGI,[1],3.36 µM
same,GI50,[2],2.05 µM
same,TGI,[2],18.3 µM
same,GI50,[3],1.66 µM
same,TGI,[3],3.09 µM
same,GI50,[4],1.11 µM
same,TGI,[4],2.4 µM
same,GI50,[5],4.65 µM
same,TGI,[5],67.6 µM
same,GI50,[6],1.27 µM
same,TGI,[6],2.84 µM
same,GI50,[7],1.6 µM
same,TGI,[7],3.72 µM
same,GI50,[8],1.31 µM
same,TGI,[8],2.72 µM
same,GI50,[9],16.5 µM
same,TGI,[9],57.5 µM
same,GI50,[10],1.55 µM
same,TGI,[10],2.91 µM
same,GI50,[11],1.81 µM
same,TGI,[11],3.31 µM
same,GI50,[12],1.44 µM
same,TGI,[12],3.09 µM
same,GI50,[13],1.63 µM
same,TGI,[13],3.19 µM
same,GI50,[14],1.65 µM
same,TGI,[14],3.11 µM
same,GI50,[15],1.7 µM
same,TGI,[15],3.12 µM
same,GI50,[16],1.43 µM
same,TGI,[16],2.8 µM
same,GI50,[17],2.43 µM
same,TGI,[17],17 µM
O=CCC(O)C(O)C(O)CO (stereo unspecified),GI50,[18],> 100 µM
same,TGI,[18],> 100 µM
same,GI50,[19],> 100 µM
same,TGI,[19],> 100 µM
same,GI50,[20],> 100 µM
same,TGI,[20],> 100 µM
same,GI50,[2],> 100 µM
same,TGI,[2],> 100 µM
same,GI50,[21],> 100 µM
same,TGI,[21],> 100 µM
same,GI50,[22],> 100 µM
same,TGI,[22],> 100 µM
same,GI50,[3],> 100 µM
same,TGI,[3],> 100 µM
same,GI50,[4],> 100 µM
same,TGI,[4],> 100 µM
same,GI50,[23],> 100 µM
same,TGI,[23],> 100 µM
same,GI50,[24],> 100 µM
same,TGI,[24],> 100 µM
same,GI50,[5],> 100 µM
same,TGI,[5],> 100 µM
same,GI50,[25],> 100 µM
same,TGI,[25],> 100 µM
same,GI50,[6],1.74 µM
same,TGI,[6],> 100 µM
same,GI50,[7],> 100 µM
same,TGI,[7],> 100 µM
same,GI50,[26],> 100 µM
same,TGI,[26],> 100 µM
same,GI50,[27],> 100 µM
same,TGI,[27],> 100 µM
same,GI50,[28],> 100 µM
same,TGI,[28],> 100 µM
same,GI50,[29],> 100 µM
same,TGI,[29],> 100 µM
same,GI50,[30],> 100 µM
same,TGI,[30],> 100 µM
same,GI50,[31],> 100 µM
same,TGI,[31],> 100 µM
same,GI50,[32],> 100 µM
same,TGI,[32],> 100 µM
same,GI50,[33],> 100 µM
same,TGI,[33],> 100 µM
same,GI50,[34],> 100 µM
same,TGI,[34],> 100 µM
same,GI50,[8],> 100 µM
same,TGI,[8],> 100 µM
same,GI50,[35],> 100 µM
same,TGI,[35],> 100 µM
same,GI50,[36],> 100 µM
same,TGI,[36],> 100 µM
same,GI50,[37],> 100 µM
same,TGI,[37],> 100 µM
same,GI50,[38],> 100 µM
same,TGI,[38],> 100 µM
same,GI50,[39],> 100 µM
same,TGI,[39],> 100 µM
same,GI50,[9],> 100 µM
same,TGI,[9],> 100 µM
same,GI50,[40],> 100 µM
same,TGI,[40],> 100 µM
same,GI50,[41],> 100 µM
same,TGI,[41],> 100 µM
same,GI50,[42],> 100 µM
same,TGI,[42],> 100 µM
same,GI50,[43],> 100 µM
same,TGI,[43],> 100 µM
same,GI50,[10],> 100 µM
same,TGI,[10],> 100 µM
same,GI50,[44],> 100 µM
same,TGI,[44],> 100 µM
same,GI50,[12],> 100 µM
same,TGI,[12],> 100 µM
same,GI50,[13],> 100 µM
same,TGI,[13],> 100 µM
same,GI50,[14],> 100 µM
same,TGI,[14],> 100 µM
same,GI50,[15],> 100 µM
same,TGI,[15],> 100 µM
same,GI50,[45],> 100 µM
same,TGI,[45],> 100 µM
same,GI50,[46],> 100 µM
same,TGI,[46],> 100 µM
same,GI50,[47],> 100 µM
same,TGI,[47],> 100 µM
same,GI50,[48],> 100 µM
same,TGI,[48],> 100 µM
same,GI50,[49],> 100 µM
same,TGI,[49],> 100 µM
same,GI50,[50],> 100 µM
same,TGI,[50],> 100 µM
same,GI50,[51],> 100 µM
same,TGI,[51],> 100 µM
same,GI50,[52],> 100 µM
same,TGI,[52],> 100 µM
same,GI50,[53],> 100 µM
same,TGI,[53],> 100 µM
same,GI50,[16],55.6 µM
same,TGI,[16],> 100 µM
same,GI50,[54],> 100 µM
same,TGI,[54],> 100 µM
same,GI50,[17],> 100 µM
same,TGI,[17],> 100 µM
Nc1ccccc1-n1c2c(c3ccccc3c1=O)C(=O)c1ccccc1-2,TGI,[18],55.6 µM
same,TGI,[1],> 100 µM
same,TGI,[19],> 100 µM
same,TGI,[20],18.3 µM
same,TGI,[55],12.9 µM
same,TGI,[2],50.7 µM
same,TGI,[21],> 100 µM
same,TGI,[22],> 100 µM
same,TGI,[3],> 100 µM
same,TGI,[4],> 100 µM
same,TGI,[23],> 100 µM
same,TGI,[24],> 100 µM
same,TGI,[5],> 100 µM
same,TGI,[56],41.6 µM
same,TGI,[25],22.9 µM
same,TGI,[6],53.6 µM
same,TGI,[26],> 100 µM
same,TGI,[27],> 100 µM
same,TGI,[28],> 100 µM
same,TGI,[29],> 100 µM
same,TGI,[30],> 100 µM
same,TGI,[31],> 100 µM
same,TGI,[32],85.5 µM
same,TGI,[33],> 100 µM
same,TGI,[34],> 100 µM
same,TGI,[8],> 100 µM
same,TGI,[35],> 100 µM
same,TGI,[36],> 100 µM
same,TGI,[37],51.1 µM
same,TGI,[38],> 100 µM
same,TGI,[39],25.6 µM
same,TGI,[9],51.3 µM
same,TGI,[40],55.1 µM
same,TGI,[41],82.7 µM
same,TGI,[42],> 100 µM
same,TGI,[43],45.4 µM
same,TGI,[10],97.4 µM
same,TGI,[44],> 100 µM
same,TGI,[12],48.2 µM
same,TGI,[13],40.1 µM
same,TGI,[57],26.8 µM
same,TGI,[14],52.8 µM
same,TGI,[15],> 100 µM
same,TGI,[45],> 100 µM
same,TGI,[46],21.5 µM
same,TGI,[47],> 100 µM
same,TGI,[48],23.8 µM
same,TGI,[58],> 100 µM
same,TGI,[50],> 100 µM
same,TGI,[53],60.5 µM
same,TGI,[16],> 100 µM
same,TGI,[54],> 100 µM
same,TGI,[17],33.9 µM

# From PubChem BioAssay (NCI)
